What was measured:
human fibroblastic cells = test: Cytotoxicity check of the products on human fibroblastic cells; format: cell-based
Description: Cytotoxicity checks are conducted on the products for cellular cultures used in the tests, that is to say the human fibroblastic cells.
The cells are cultivated on a Dulbecco medium enriched with 10% fetal calf serum; at the moment of their use, the cells are washed and the same culture medium is used but without calf serum.
For each product tested or each composition, 10 tubes of cellular culture were used and after inoculation of the product, the tubes were kept under observation for 3 days.
Each product was, in succession, used pure and at dilutions of 10^−1, 10^−2, 10^−3 and added to culture tubes containing 1 ml of nutrient medium in a volume of 0.1 ml.

S. aureus ATCC 6538 = test: Test 2 (DGHM), growth inhibition by dilutions, 72 hours at 37° C.; format: cell-based, Staphylococcus aureus
Description: (§1) Another test was carried out a basis of the following solutions • 100 ml of a 0.1% solution of chlorohexidine digluconate (pH 6); and • 100 ml of a 0.1% solution of Bardac22®.
(§2) The activity of these solutions, alone or in combination, was more particularly tested in respect of Staphylococcus aureus ATCC 6538, Escherichia coli ATCC 11229 and Candida albicans ATCC 10231.
(§3) The tests were conducted in accordance with the procedure described in Chapter I/2.1 and 2.2 of Tichtlinien für die Prüfung und Bewertung chemischer Desinfektionsverfahren der DGHM/Guidelines for Testing and Evaluating Chemical Disinfection Processes of DGHM as at 1.1, 1981.
(§4) Tables IX, X and XI respectively illustrate the bactericidal and fungicidal activity of a 0.1% aqueous solution of chlorohexidine digluconate, a 0.1% aqueous solution of Bardac22® and a mixture of equal parts of both compounds. The procedures of which these Tables illustrate the results comprise incubation of 72 hours at 37° C. and the use of the following inactivating substances as controls: • A: 3% Tween®80+0.3% lecithin+0.1% cysteine • B: 3% Tween®80+3% saponin+0.1% cysteine+0.1% histidine; • C: 3% Tween®80+0.3% lecithin+0.1% histidine+0.5% sodium thiosulphate.
(§5) In these Tables, the sign “+” indicates an increase and the sign “−” denotes the absence of growth.

E. coli ATCC 11229 = test: as above; format: cell-based, Escherichia coli
Description: as §1, §2, §3, §4, §5

C. albicans ATCC 1031 = test: Test 2 (DGHM), action as a function of disinfection time at 22° C., 8 × 10^7 organisms/ml; format: cell-based, Candida albicans
Description: as §1, §2, §3

[1] = test system: erythrocytes in heparinized bovine blood; test: In-vitro hemolysis of erythrocytes in heparinized whole blood, absorbance at 413 nm; settings: 1 hour at 37° C.
Description: The effect of the compounds on the in-vitro hemolysis of erythrocytes in heparinized whole blood is monitored by a spectrophotometric method.
Various formulations and concentrations of the test compound are added to heparinized bovine blood and mixed gently in a 1.5 ml microcentrifuge tube. The sample is allowed to incubate for 1 hour at 37° C. At the end of incubation, the samples are removed from the incubator and centrifuged at 2000 rpm for 5 minutes. A 200 μl aliquot of the supernatant is removed from each sample into a 96 well microtiter plate and read at 413 nm. The absorbance of the test sample is compared to the control sample containing phosphate buffered saline, pH 7.2.

[2] = 0.00625% vol/vol, inactivator A
[3] = 0.00625% vol/vol, inactivator B
[4] = 0.00625% vol/vol, inactivator C
[5] = 0.00625% vol/vol, no inactivator
[6] = 0.0125% vol/vol, no inactivator

[H]/N=C(\N/C(=N/[H])NCCCCCCNC(=N)NC(=N)Nc1ccc(Cl)cc1)Nc1ccc(Cl)cc1 [Chlorhexidine, chlorohexidine digluconate, reference compound]
+: growth (S. aureus ATCC 6538; [2]) | growth (S. aureus ATCC 6538; [3]) | growth (S. aureus ATCC 6538; [4]) | growth (S. aureus ATCC 6538; [5]) | growth (S. aureus ATCC 6538; 0.0125% vol/vol, inactivator A) | growth (S. aureus ATCC 6538; 0.0125% vol/vol, inactivator B) | growth (S. aureus ATCC 6538; 0.0125% vol/vol, inactivator C) | growth (S. aureus ATCC 6538; [6]) | growth (S. aureus ATCC 6538; 0.025% vol/vol, inactivator A) | growth (S. aureus ATCC 6538; 0.025% vol/vol, inactivator B) | growth (S. aureus ATCC 6538; 0.025% vol/vol, inactivator C) | growth (S. aureus ATCC 6538; 0.025% vol/vol, no inactivator) | growth (S. aureus ATCC 6538; 0.05% vol/vol, inactivator A) | growth (S. aureus ATCC 6538; 0.05% vol/vol, inactivator B) | growth (S. aureus ATCC 6538; 0.05% vol/vol, inactivator C) | growth (S. aureus ATCC 6538; 0.05% vol/vol, no inactivator) | growth (S. aureus ATCC 6538; 0.1% vol/vol, inactivator A) | growth (S. aureus ATCC 6538; 0.1% vol/vol, inactivator B) | growth (S. aureus ATCC 6538; 0.1% vol/vol, inactivator C) | growth (S. aureus ATCC 6538; 0.1% vol/vol, no inactivator) | growth (S. aureus ATCC 6538; 0.5% vol/vol, inactivator A) | growth (S. aureus ATCC 6538; 0.5% vol/vol, inactivator B) | growth (S. aureus ATCC 6538; 0.5% vol/vol, inactivator C) | growth (S. aureus ATCC 6538; 1.0% vol/vol, inactivator A) | growth (S. aureus ATCC 6538; 1.0% vol/vol, inactivator B) | growth (S. aureus ATCC 6538; 1.0% vol/vol, inactivator C) | growth (E. coli ATCC 11229; [2]) | growth (E. coli ATCC 11229; [3]) | growth (E. coli ATCC 11229; [4]) | growth (E. coli ATCC 11229; [5]) | growth (E. coli ATCC 11229; 0.0125% vol/vol, inactivator A) | growth (E. coli ATCC 11229; 0.0125% vol/vol, inactivator B) | growth (E. coli ATCC 11229; 0.0125% vol/vol, inactivator C) | growth (E. coli ATCC 11229; [6]) | growth (E. coli ATCC 11229; 0.025% vol/vol, inactivator A) | growth (E. coli ATCC 11229; 0.025% vol/vol, inactivator B) | growth (E. coli ATCC 11229; 0.025% vol/vol, inactivator C) | growth (E. coli ATCC 11229; 0.025% vol/vol, no inactivator) | growth (E. coli ATCC 11229; 0.05% vol/vol, inactivator A) | growth (E. coli ATCC 11229; 0.05% vol/vol, inactivator B) | growth (E. coli ATCC 11229; 0.05% vol/vol, inactivator C) | growth (E. coli ATCC 11229; 0.05% vol/vol, no inactivator) | growth (E. coli ATCC 11229; 0.1% vol/vol, inactivator A) | growth (E. coli ATCC 11229; 0.1% vol/vol, inactivator B) | growth (E. coli ATCC 11229; 0.1% vol/vol, inactivator C) | growth (E. coli ATCC 11229; 0.1% vol/vol, no inactivator) | growth (E. coli ATCC 11229; 0.5% vol/vol, inactivator A) | growth (E. coli ATCC 11229; 0.5% vol/vol, inactivator B) | growth (E. coli ATCC 11229; 0.5% vol/vol, inactivator C) | growth (E. coli ATCC 11229; 1.0% vol/vol, inactivator A) | growth (E. coli ATCC 11229; 1.0% vol/vol, inactivator B) | growth (E. coli ATCC 11229; 1.0% vol/vol, inactivator C) | growth (C. albicans ATCC 1031; 0.05% vol/vol, 1 min) | growth (C. albicans ATCC 1031; 0.05% vol/vol, 3 min) | growth (C. albicans ATCC 1031; 0.05% vol/vol, 5 min) | growth (C. albicans ATCC 1031; 0.05% vol/vol, 15 min) | growth (C. albicans ATCC 1031; 0.05% vol/vol, 30 min) | growth (C. albicans ATCC 1031; 0.05% vol/vol, 60 min) | growth (C. albicans ATCC 1031; 0.1% vol/vol, 1 min) | growth (C. albicans ATCC 1031; 0.1% vol/vol, 3 min) | growth (C. albicans ATCC 1031; 0.1% vol/vol, 5 min) | growth (C. albicans ATCC 1031; 0.1% vol/vol, 15 min) | growth (C. albicans ATCC 1031; 0.1% vol/vol, 30 min) | growth (C. albicans ATCC 1031; 0.1% vol/vol, 60 min) | growth (C. albicans ATCC 1031; 0.5% vol/vol, 1 min) | growth (C. albicans ATCC 1031; 0.5% vol/vol, 3 min) | growth (C. albicans ATCC 1031; 0.5% vol/vol, 5 min) | growth (C. albicans ATCC 1031; 0.5% vol/vol, 15 min) | growth (C. albicans ATCC 1031; 0.5% vol/vol, 30 min) | growth (C. albicans ATCC 1031; 0.5% vol/vol, 60 min) | growth (C. albicans ATCC 1031; 1% vol/vol, 1 min) | growth (C. albicans ATCC 1031; 1% vol/vol, 3 min) | growth (C. albicans ATCC 1031; 1% vol/vol, 5 min) | growth (C. albicans ATCC 1031; 1% vol/vol, 15 min) | growth (C. albicans ATCC 1031; 1% vol/vol, 30 min) | growth (C. albicans ATCC 1031; 5% vol/vol, 1 min) | growth (C. albicans ATCC 1031; 5% vol/vol, 3 min) | growth (C. albicans ATCC 1031; 5% vol/vol, 5 min) | growth (C. albicans ATCC 1031; 5% vol/vol, 15 min) | growth (C. albicans ATCC 1031; 10% vol/vol, 1 min) | growth (C. albicans ATCC 1031; 10% vol/vol, 3 min) | growth (C. albicans ATCC 1031; 10% vol/vol, 5 min) | growth (C. albicans ATCC 1031; 10% vol/vol, 15 min) | growth (C. albicans ATCC 1031; 25% vol/vol, 1 min) | growth (C. albicans ATCC 1031; 25% vol/vol, 3 min) | growth (C. albicans ATCC 1031; 25% vol/vol, 5 min)
0.5%: dilution of the 0.1% solution inhibiting growth (S. aureus ATCC 6538) | dilution of the 0.1% solution inhibiting growth (E. coli ATCC 11229)
no toxicity: toxicity for the cell cultures (human fibroblastic cells)
0.001%: Concentration at which hemolysis is not observed ([1]; component of test compound Bardac 22 + Chlorohexidine Gluconate + Tergitol NP-9)
0.0005%: concentration of active substance inhibiting growth (S. aureus ATCC 6538) | concentration of active substance inhibiting growth (E. coli ATCC 11229)
−: growth (S. aureus ATCC 6538; 0.5% vol/vol, no inactivator) | growth (S. aureus ATCC 6538; 1.0% vol/vol, no inactivator) | growth (E. coli ATCC 11229; 0.5% vol/vol, no inactivator) | growth (E. coli ATCC 11229; 1.0% vol/vol, no inactivator) | growth (C. albicans ATCC 1031; 1% vol/vol, 60 min) | growth (C. albicans ATCC 1031; 5% vol/vol, 30 min) | growth (C. albicans ATCC 1031; 5% vol/vol, 60 min) | growth (C. albicans ATCC 1031; 10% vol/vol, 30 min) | growth (C. albicans ATCC 1031; 10% vol/vol, 60 min) | growth (C. albicans ATCC 1031; 25% vol/vol, 15 min) | growth (C. albicans ATCC 1031; 25% vol/vol, 30 min) | growth (C. albicans ATCC 1031; 25% vol/vol, 60 min)
0.0125%: Concentration at which hemolysis is not observed ([1]; component of test compound Bardac 22 + Chlorohexidine Gluconate)

Source: patent publication US7381521B2, “Anti-pathogenic composition useful in blood preservation” (Altachem Pharma Ltd., priority 2001, dated 2008)
